Measurements reported in ChEMBL document CHEMBL1136082, “Muscarinic M(3) receptor antagonists with (2R)-2-[(1R)-3,3-difluorocyclopentyl]-2-hydroxyphenylacetamide Structures. Part 2” (Bioorg Med Chem Lett, 2003).

How the values were obtained:
[1] = molecular target: T1, Muscarinic acetylcholine receptor M1 (Homo sapiens, UniProt P11229); test: Binding affinity against human Muscarinic acetylcholine receptor M1 in transfected CHO cells; format: cell-based
T1 sequence (P11229 whole entry): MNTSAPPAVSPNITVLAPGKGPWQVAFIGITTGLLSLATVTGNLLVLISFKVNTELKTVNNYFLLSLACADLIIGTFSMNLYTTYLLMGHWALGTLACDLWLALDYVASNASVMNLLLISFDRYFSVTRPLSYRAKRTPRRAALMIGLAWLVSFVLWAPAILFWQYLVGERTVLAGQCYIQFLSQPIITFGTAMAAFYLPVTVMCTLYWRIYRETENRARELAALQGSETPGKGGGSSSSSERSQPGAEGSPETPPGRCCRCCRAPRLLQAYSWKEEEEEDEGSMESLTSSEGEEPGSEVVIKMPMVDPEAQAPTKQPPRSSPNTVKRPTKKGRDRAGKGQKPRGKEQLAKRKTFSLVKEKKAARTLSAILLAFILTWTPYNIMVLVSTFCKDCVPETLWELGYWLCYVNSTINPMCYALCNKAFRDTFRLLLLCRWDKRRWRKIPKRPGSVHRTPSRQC

[2] = molecular target: Muscarinic acetylcholine receptor M3 (Homo sapiens, UniProt P20309); test: Binding affinity against human muscarinic acetylcholine receptor M3 in transfected CHO cells; format: cell-based
[3] = molecular target: T2, Muscarinic acetylcholine receptor M2 (Homo sapiens, UniProt P08172); test: Binding affinity against human muscarinic acetylcholine receptor M2 in transfected CHO cells; format: cell-based
T2 sequence (P08172 whole entry): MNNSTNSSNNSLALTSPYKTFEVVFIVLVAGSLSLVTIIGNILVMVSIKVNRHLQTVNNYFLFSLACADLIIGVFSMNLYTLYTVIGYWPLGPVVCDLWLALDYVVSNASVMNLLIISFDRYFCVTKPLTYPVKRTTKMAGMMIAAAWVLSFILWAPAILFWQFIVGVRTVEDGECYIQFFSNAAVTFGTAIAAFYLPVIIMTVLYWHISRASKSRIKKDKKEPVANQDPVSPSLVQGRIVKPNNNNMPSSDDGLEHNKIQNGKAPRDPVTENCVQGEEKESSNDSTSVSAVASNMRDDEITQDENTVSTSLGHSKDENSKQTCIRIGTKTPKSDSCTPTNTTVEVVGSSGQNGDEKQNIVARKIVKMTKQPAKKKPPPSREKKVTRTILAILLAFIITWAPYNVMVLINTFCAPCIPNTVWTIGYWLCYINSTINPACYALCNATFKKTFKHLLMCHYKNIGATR

[4] = In vitro metabolic stability determined after 30 min of incubation in dog hepatic microsomes; format: ADME, Canis lupus familiaris; conditions: liver microsomes, read-out: Metabolic stability
[5] = In vitro metabolic stability determined after 30 min of incubation in human hepatic microsomes; format: ADME; conditions: liver microsomes, read-out: Metabolic stability
[6] = In vitro metabolic stability determined after 30 min of incubation in rat hepatic microsomes; format: ADME; conditions: liver microsomes, read-out: Metabolic stability
[7] = Area under curve was determined after 0.1 mg/kg iv administration in dog; format: ADME, organism-based, Canis lupus familiaris; design: dose 0.1 mg/kg, route intravenous; conditions: in vivo
[8] = Area under curve was determined after 0.3 mg/kg po administration in dog; format: ADME, organism-based, Canis lupus familiaris; design: dose 0.3 mg/kg, route oral; conditions: in vivo
[9] = Half-life of the compound after 0.3 mg/kg po administration in dog; format: ADME, organism-based, Canis lupus familiaris; design: dose 0.3 mg/kg, route oral; conditions: in vivo
[10] = Cmax after 0.3 mg/kg po administration in dog; format: ADME, organism-based, Canis lupus familiaris; design: dose 0.3 mg/kg, route oral; conditions: in vivo
[11] = Vdss was determined after iv 0.1 mg/kg administration in dog; format: ADME, organism-based, Canis lupus familiaris; design: dose 0.1 mg/kg, route intravenous; conditions: in vivo, read-out: Vdss
[12] = Total clearance was determined after 0.1 mg/kg iv administration in dog; format: ADME, organism-based, Canis lupus familiaris; design: dose 0.1 mg/kg, route intravenous; conditions: in vivo, read-out: CLtotal
[13] = Oral bioavailability after 0.3 mg/kg po administration in dog; format: ADME, organism-based, Canis lupus familiaris; conditions: in vivo

Sequence of Muscarinic acetylcholine receptor M3 (P20309 whole entry): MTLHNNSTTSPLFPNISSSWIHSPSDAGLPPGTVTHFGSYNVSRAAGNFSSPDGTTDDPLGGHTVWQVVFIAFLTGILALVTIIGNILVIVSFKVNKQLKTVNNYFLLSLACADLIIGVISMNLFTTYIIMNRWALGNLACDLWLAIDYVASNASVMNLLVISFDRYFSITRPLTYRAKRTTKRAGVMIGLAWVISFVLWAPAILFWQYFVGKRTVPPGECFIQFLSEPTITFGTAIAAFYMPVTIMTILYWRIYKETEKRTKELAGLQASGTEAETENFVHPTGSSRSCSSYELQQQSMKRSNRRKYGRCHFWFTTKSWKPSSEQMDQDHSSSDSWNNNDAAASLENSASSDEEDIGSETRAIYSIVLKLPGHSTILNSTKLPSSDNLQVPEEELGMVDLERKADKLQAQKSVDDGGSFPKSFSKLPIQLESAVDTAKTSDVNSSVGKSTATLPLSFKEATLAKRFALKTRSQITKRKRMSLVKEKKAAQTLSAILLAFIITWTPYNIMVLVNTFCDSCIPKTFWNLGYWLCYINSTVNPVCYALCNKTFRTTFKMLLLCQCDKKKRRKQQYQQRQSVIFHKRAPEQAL

Work on `NCC(=O)N1CCN(C(=O)[C@](O)(c2ccccc2)[C@@H]2CCC(F)(F)C2)CC1` yielded a Ki [1] of 0.021 µM, a Ki [2] of 0.016 µM and a Ki [3] of 0.3 µM.
For `O=C(N1CCNCC1)[C@](O)(c1ccccc1)[C@@H]1CCC(F)(F)C1`, the Ki [1] was 0.03 µM, the Ki [2] was 0.05 µM and the Ki [3] was 1.2 µM.
Molecule `Nc1cccc(CN2CCC(NC(=O)[C@](O)(c3ccccc3)[C@@H]3CCC(F)(F)C3)CC2)n1` has a remaining at 0.5 h [4] of 84%, a remaining at 0.5 h [5] of 80% and a remaining at 0.5 h [6] of 46%.
`NCC1CCN(C(=O)[C@](O)(c2ccccc2)[C@@H]2CCC(F)(F)C2)C1` (stereo not given in full) showed a Ki [1] of 0.0021 µM, a Ki [2] of 0.0029 µM and a Ki [3] of 0.13 µM.
`NCc1cccc(NC(=O)[C@](O)(c2ccccc2)[C@@H]2CCC(F)(F)C2)c1` showed a Ki [1] of 0.21 µM, a Ki [2] of 0.093 µM and a Ki [3] of 2.9 µM.
`CC1(N)CCN(C(=O)[C@](O)(c2ccccc2)[C@@H]2CCC(F)(F)C2)CC1` gave a Ki [1] of 0.0047 µM, a Ki [2] of 0.0083 µM and a Ki [3] of 0.64 µM.
`NCCCCC1CCN(C(=O)[C@](O)(c2ccccc2)[C@@H]2CCC(F)(F)C2)CC1` showed a Ki [1] of 0.14 µM, a Ki [2] of 0.076 µM and a Ki [3] of 4.2 µM.
`O=C(NCCC1CCNCC1)[C@](O)(c1ccccc1)[C@@H]1CCC(F)(F)C1` gave a Ki [1] of 0.14 µM, a Ki [2] of 0.089 µM and a Ki [3] of 3.9 µM.
Molecule `NCC1CCC(NC(=O)[C@](O)(c2ccccc2)[C@@H]2CCC(F)(F)C2)CC1` (stereo not given in full) has a Ki [1] of 0.055 µM, a Ki [2] of 0.1 µM and a Ki [3] of 6.8 µM.
In the case of `O=C(N1CCC(CCN2CCCCC2)CC1)[C@](O)(c1ccccc1)[C@@H]1CCC(F)(F)C1`, the Ki [1] is reported as 1.9 µM, the Ki [2] is reported as 2.4 µM and the Ki [3] is reported as 36 µM.
`O=C(N1CCCNCC1)[C@](O)(c1ccccc1)[C@@H]1CCC(F)(F)C1` showed a Ki [1] of 0.014 µM, a Ki [2] of 0.017 µM and a Ki [3] of 1.1 µM.
In the case of `NCC1CCN(C(=O)[C@](O)(c2ccccc2)C2CCCC2)CC1`, the remaining at 0.5 h [4] is reported as 100%, the remaining at 0.5 h [5] is reported as 91% and the remaining at 0.5 h [6] is reported as 72%. It also gave a Ki [1] of 0.0018 µM, a Ki [2] of 0.0017 µM and a Ki [3] of 0.028 µM.
With `NCCC1CCN(C(=O)[C@](O)(c2ccccc2)[C@@H]2CCC(F)(F)C2)CC1` the AUC [7] was 150 ng·h/mL, the AUC [8] was 440 ng·h/mL and the remaining at 0.5 h [4] was 100%. The remaining at 0.5 h [5] was 82%, the half-life [9] was 6.9 h and the remaining at 0.5 h [6] was 100%. The Cmax [10] was 43 ng/mL, the Vd [11] was 9.4 L/kg and the clearance [12] was 13 mL/min/kg. It also gave a Ki [1] of 0.0066 µM and a bioavailability [13] of 98%.
For `CCC1(CCN)CCN(C(=O)[C@](O)(c2ccccc2)[C@@H]2CCC(F)(F)C2)CC1`, the Ki [1] was 0.001 µM, the Ki [2] was 0.007 µM and the Ki [3] was 0.3 µM.
With `CC(C)(N)CC1CCN(C(=O)[C@](O)(c2ccccc2)[C@@H]2CCC(F)(F)C2)CC1` the Ki [1] was 0.037 µM, the Ki [2] was 0.026 µM and the Ki [3] was 1 µM.
Molecule `NCCCC1CCN(C(=O)[C@](O)(c2ccccc2)[C@@H]2CCC(F)(F)C2)CC1` has a Ki [1] of 0.092 µM, a Ki [2] of 0.047 µM and a Ki [3] of 2.8 µM.
Work on `NCc1ccc(NC(=O)[C@](O)(c2ccccc2)[C@@H]2CCC(F)(F)C2)cc1` yielded a Ki [1] of 0.74 µM, a Ki [2] of 0.65 µM and a Ki [3] of 5.3 µM.
`CNCCC1CCN(C(=O)[C@](O)(c2ccccc2)[C@@H]2CCC(F)(F)C2)CC1` gave a Ki [1] of 0.14 µM, a Ki [2] of 0.12 µM and a Ki [3] of 5.4 µM.
For `NCC=C1CCN(C(=O)[C@](O)(c2ccccc2)[C@@H]2CCC(F)(F)C2)CC1`, the Ki [1] was 0.0013 µM, the Ki [2] was 0.0012 µM and the Ki [3] was 0.055 µM.
With `NCC1CCN(C(=O)[C@](O)(c2ccccc2)[C@@H]2CCC(F)(F)C2)CC1` the remaining at 0.5 h [4] was 100%, the remaining at 0.5 h [5] was 100% and the remaining at 0.5 h [6] was 98%. It also gave a Ki [1] of 0.011 µM, a Ki [2] of 0.011 µM and a Ki [3] of 0.76 µM.
For `NCCN1CCN(C(=O)[C@](O)(c2ccccc2)[C@@H]2CCC(F)(F)C2)CC1`, the Ki [1] was 0.011 µM, the Ki [2] was 0.0096 µM and the Ki [3] was 0.82 µM.
Work on `O=C(NC1CCNCC1)[C@](O)(c1ccccc1)[C@@H]1CCC(F)(F)C1` yielded a Ki [1] of 0.31 µM, a Ki [2] of 0.32 µM and a Ki [3] of 15 µM.
For `O=C(Nc1ccc2c(c1)CNC2)[C@](O)(c1ccccc1)[C@@H]1CCC(F)(F)C1`, the Ki [1] was 0.63 µM, the Ki [2] was 0.29 µM and the Ki [3] was 15 µM.
`NC1CCN(C(=O)[C@](O)(c2ccccc2)C2CCCC2)CC1` showed a remaining at 0.5 h [4] of 89%, a remaining at 0.5 h [5] of 92% and a remaining at 0.5 h [6] of 40%. The Ki [1] was 0.00098 µM, the Ki [2] was 0.0014 µM and the Ki [3] was 0.011 µM.
With `NCCC1CCN(C(=O)[C@](O)(c2ccccc2)C2CCCC2)CC1` the remaining at 0.5 h [4] was 84%, the remaining at 0.5 h [5] was 86% and the remaining at 0.5 h [6] was 77%. It also gave a Ki [1] of 0.0021 µM, a Ki [2] of 0.0011 µM and a Ki [3] of 0.041 µM.
With `CN(C)CCC1CCN(C(=O)[C@](O)(c2ccccc2)[C@@H]2CCC(F)(F)C2)CC1` the Ki [1] was 0.76 µM, the Ki [2] was 0.93 µM and the Ki [3] was 15 µM.
Work on `NC1CCN(C(=O)[C@](O)(c2ccccc2)[C@@H]2CCC(F)(F)C2)CC1` yielded a remaining at 0.5 h [4] of 88%, a remaining at 0.5 h [5] of 86% and a remaining at 0.5 h [6] of 100%. It also gave a Ki [1] of 0.003 µM, a Ki [2] of 0.0051 µM and a Ki [3] of 0.24 µM.
With `O=C(NCC1CCNCC1)[C@](O)(c1ccccc1)[C@@H]1CCC(F)(F)C1` the Ki [1] was 0.023 µM, the Ki [2] was 0.017 µM and the Ki [3] was 2.2 µM.
With `CC1(CCN)CCN(C(=O)[C@](O)(c2ccccc2)[C@@H]2CCC(F)(F)C2)CC1` the Ki [1] was 0.0015 µM, the Ki [2] was 0.0033 µM and the Ki [3] was 0.21 µM.
